# From ChEMBL document CHEMBL3885861, “Open TG-GATES”
# Species on record: Rattus norvegicus
# Experiment: Open TG-GATES - Regimen: Daily Repeat
# Assay type: toxicity, organism-based, Sprague-Dawley
# Set-up: regimen Daily Repeat, gender Male, age 6 weeks
# Settings: in vivo, po, 100 mg/kg, route gavage, dose level High; for APTT / Bas / Eos / Fbg / Hb / Ht / Lym / MCH / MCHC / MCV / Mono / Neu / PT / Plat / RBC / Ret / WBC: tissue Blood; for KIDNEY_L / KIDNEY_R / KIDNEY_TOTAL: tissue Kidney; for LIVER: tissue Liver; for A/G / ALP / ALT / AST / BUN / CRE / Ca / Cl / DBIL / GLC / IP / K / LDH / Na / PL / RALB / TBIL / TC / TG / TP / gamma-GTP: tissue Plasma
structure (smiles),measurement,setting,value
Nc1ccc(Cc2ccc(N)cc2)cc1,TERMINAL_BW,"72 h, time 3 day",208.1 g
same,APTT,"72 h, time 3 day",17.9 s
same,Bas,"72 h, time 3 day",0.6%
same,Eos,"72 h, time 3 day",1%
same,Fbg,"72 h, time 3 day",405.8 mg/dL
same,Hb,"72 h, time 3 day",12.8 g/dL
same,Ht,"72 h, time 3 day",35.9%
same,Lym,"72 h, time 3 day",66.8%
same,MCH,"72 h, time 3 day",19.9 pg
same,MCHC,"72 h, time 3 day",35.8%
same,MCV,"72 h, time 3 day",55.5 fL
same,Mono,"72 h, time 3 day",6.2%
same,Neu,"72 h, time 3 day",25.2%
same,PT,"72 h, time 3 day",12 s
same,Plat,"72 h, time 3 day",166 x10_4/uL
same,RBC,"72 h, time 3 day",646 x10_4/ul
same,Ret,"72 h, time 3 day",4.3%
same,WBC,"72 h, time 3 day",223.6 x10_2/uL
same,KIDNEY_L,"72 h, time 3 day",1 g
same,KIDNEY_R,"72 h, time 3 day",1 g
same,KIDNEY_TOTAL,"72 h, time 3 day",2 g
same,LIVER,"72 h, time 3 day",11.6 g
same,A/G,"72 h, time 3 day",0.6
same,ALP,"72 h, time 3 day",3437 IU/L
same,ALT,"72 h, time 3 day",290.2 IU/L
same,AST,"72 h, time 3 day",509.2 IU/L
same,BUN,"72 h, time 3 day",12.6 mg/dL
same,CRE,"72 h, time 3 day",0.2 mg/dL
same,Ca,"72 h, time 3 day",11.3 mg/dL
same,Cl,"72 h, time 3 day",103.8 meq/L
same,DBIL,"72 h, time 3 day",1.3 mg/dL
same,GLC,"72 h, time 3 day",145.2 mg/dL
same,IP,"72 h, time 3 day",7.3 mg/dL
same,K,"72 h, time 3 day",4.7 meq/L
same,LDH,"72 h, time 3 day",160.6 IU/L
same,Na,"72 h, time 3 day",141.6 meq/L
same,PL,"72 h, time 3 day",325.8 mg/dL
same,RALB,"72 h, time 3 day",2.3 g/dL
same,TBIL,"72 h, time 3 day",2.7 mg/dL
same,TC,"72 h, time 3 day",221 mg/dL
same,TG,"72 h, time 3 day",69.4 mg/dL
same,TP,"72 h, time 3 day",5.9 g/dL
same,gamma-GTP,"72 h, time 3 day",7.8 IU/L
same,TERMINAL_BW,"[…], time 7 day",235.7 g
same,TERMINAL_BW,"[…], time 14 day",264.2 g
same,TERMINAL_BW,"[…], time 28 day",273.7 g
same,APTT,"[…], time 7 day",17.6 s
same,Bas,"[…], time 7 day",0.6%
same,Eos,"[…], time 7 day",0.6%
same,Fbg,"[…], time 7 day",273.8 mg/dL
same,Hb,"[…], time 7 day",12.4 g/dL
same,Ht,"[…], time 7 day",34.8%
same,Lym,"[…], time 7 day",66.6%
same,MCH,"[…], time 7 day",19.7 pg
same,MCHC,"[…], time 7 day",35.6%
same,MCV,"[…], time 7 day",55.2 fL
same,Mono,"[…], time 7 day",5.8%
same,Neu,"[…], time 7 day",25.8%
same,PT,"[…], time 7 day",12.5 s
same,Plat,"[…], time 7 day",193.4 x10_4/uL
same,RBC,"[…], time 7 day",631 x10_4/ul
same,Ret,"[…], time 7 day",7.9%
same,WBC,"[…], time 7 day",238.1 x10_2/uL
same,APTT,"[…], time 14 day",21.7 s
same,Bas,"[…], time 14 day",1%
same,Eos,"[…], time 14 day",1%
same,Fbg,"[…], time 14 day",292.2 mg/dL
same,Hb,"[…], time 14 day",11.9 g/dL
same,Ht,"[…], time 14 day",33.6%
same,Lym,"[…], time 14 day",69.4%
same,MCH,"[…], time 14 day",19.8 pg
same,MCHC,"[…], time 14 day",35.4%
same,MCV,"[…], time 14 day",56 fL
same,Mono,"[…], time 14 day",5.6%
same,Neu,"[…], time 14 day",22.8%
same,PT,"[…], time 14 day",13 s
same,Plat,"[…], time 14 day",166.6 x10_4/uL
same,RBC,"[…], time 14 day",601.8 x10_4/ul
same,Ret,"[…], time 14 day",8.1%
same,WBC,"[…], time 14 day",308 x10_2/uL
same,APTT,"[…], time 28 day",37.8 s
same,Bas,"[…], time 28 day",0.8%
same,Eos,"[…], time 28 day",1%
same,Fbg,"[…], time 28 day",275.8 mg/dL
same,Hb,"[…], time 28 day",12.1 g/dL
same,Ht,"[…], time 28 day",33.5%
same,Lym,"[…], time 28 day",67.2%
same,MCH,"[…], time 28 day",18.4 pg
same,MCHC,"[…], time 28 day",36.1%
same,MCV,"[…], time 28 day",51.2 fL
same,Mono,"[…], time 28 day",4%
same,Neu,"[…], time 28 day",26.6%
same,PT,"[…], time 28 day",15.2 s
same,Plat,"[…], time 28 day",121.3 x10_4/uL
same,RBC,"[…], time 28 day",654 x10_4/ul
same,Ret,"[…], time 28 day",5.8%
same,WBC,"[…], time 28 day",304.5 x10_2/uL
same,KIDNEY_L,"[…], time 7 day",1 g
same,KIDNEY_R,"[…], time 7 day",1 g
same,KIDNEY_TOTAL,"[…], time 7 day",2 g
same,KIDNEY_L,"[…], time 14 day",1 g
same,KIDNEY_R,"[…], time 14 day",1.1 g
same,KIDNEY_TOTAL,"[…], time 14 day",2.1 g
same,KIDNEY_L,"[…], time 28 day",1.1 g
same,KIDNEY_R,"[…], time 28 day",1 g
same,KIDNEY_TOTAL,"[…], time 28 day",2.1 g
same,LIVER,"[…], time 7 day",13.1 g
same,LIVER,"[…], time 14 day",16.2 g
same,LIVER,"[…], time 28 day",14.1 g
same,A/G,"[…], time 7 day",0.6
same,ALP,"[…], time 7 day",3310.8 IU/L
same,ALT,"[…], time 7 day",96.2 IU/L
same,AST,"[…], time 7 day",198.8 IU/L
same,BUN,"[…], time 7 day",13 mg/dL
same,CRE,"[…], time 7 day",0.2 mg/dL
same,Ca,"[…], time 7 day",11.6 mg/dL
same,Cl,"[…], time 7 day",103.8 meq/L
same,DBIL,"[…], time 7 day",0.9 mg/dL
same,GLC,"[…], time 7 day",148.4 mg/dL
same,IP,"[…], time 7 day",6.9 mg/dL
same,K,"[…], time 7 day",4.4 meq/L
same,LDH,"[…], time 7 day",95 IU/L
same,Na,"[…], time 7 day",143.6 meq/L
same,PL,"[…], time 7 day",213.6 mg/dL
same,RALB,"[…], time 7 day",2.4 g/dL
same,TBIL,"[…], time 7 day",1.7 mg/dL
same,TC,"[…], time 7 day",135 mg/dL
same,TG,"[…], time 7 day",48.6 mg/dL
same,TP,"[…], time 7 day",6.1 g/dL
same,gamma-GTP,"[…], time 7 day",6 IU/L
same,A/G,"[…], time 14 day",0.5
same,ALP,"[…], time 14 day",2423.6 IU/L
same,ALT,"[…], time 14 day",91.4 IU/L
same,AST,"[…], time 14 day",260 IU/L
same,BUN,"[…], time 14 day",17.6 mg/dL
same,CRE,"[…], time 14 day",0.2 mg/dL
same,Ca,"[…], time 14 day",11.4 mg/dL
same,Cl,"[…], time 14 day",103.6 meq/L
same,DBIL,"[…], time 14 day",0.7 mg/dL
same,GLC,"[…], time 14 day",143.6 mg/dL
same,IP,"[…], time 14 day",6.4 mg/dL
same,K,"[…], time 14 day",4.1 meq/L
same,LDH,"[…], time 14 day",143.8 IU/L
same,Na,"[…], time 14 day",143.6 meq/L
same,PL,"[…], time 14 day",226.4 mg/dL
same,RALB,"[…], time 14 day",2.5 g/dL
same,TBIL,"[…], time 14 day",1.6 mg/dL
same,TC,"[…], time 14 day",165.4 mg/dL
same,TG,"[…], time 14 day",49.6 mg/dL
same,TP,"[…], time 14 day",7 g/dL
same,gamma-GTP,"[…], time 14 day",8 IU/L
same,A/G,"[…], time 28 day",0.5
same,ALP,"[…], time 28 day",3009.6 IU/L
same,ALT,"[…], time 28 day",116.6 IU/L
same,AST,"[…], time 28 day",300 IU/L
same,BUN,"[…], time 28 day",19.2 mg/dL
same,CRE,"[…], time 28 day",0.3 mg/dL
same,Ca,"[…], time 28 day",11.5 mg/dL
same,Cl,"[…], time 28 day",102 meq/L
same,DBIL,"[…], time 28 day",0.6 mg/dL
same,GLC,"[…], time 28 day",144 mg/dL
same,IP,"[…], time 28 day",5.6 mg/dL
same,K,"[…], time 28 day",4 meq/L
same,LDH,"[…], time 28 day",108.6 IU/L
same,Na,"[…], time 28 day",146.2 meq/L
same,PL,"[…], time 28 day",158.4 mg/dL
same,RALB,"[…], time 28 day",2.5 g/dL
same,TBIL,"[…], time 28 day",1.7 mg/dL
same,TC,"[…], time 28 day",113.4 mg/dL
same,TG,"[…], time 28 day",33.2 mg/dL
same,TP,"[…], time 28 day",7.6 g/dL
same,gamma-GTP,"[…], time 28 day",7.2 IU/L
